Assay results published in ChEMBL document CHEMBL1201862, “PubChem BioAssay data set” (2004).
Active and inactive are the calls of the source.

Tests used:
[1] = biological target: T1, Calpain-2 catalytic subunit (Sus scrofa, UniProt P43367); test: m-calpain protease blockers, concentration series – biochemical, fluorogenic peptide substrate, dose response (AID 1420); assay type: functional
T1 sequence (P43367 whole entry): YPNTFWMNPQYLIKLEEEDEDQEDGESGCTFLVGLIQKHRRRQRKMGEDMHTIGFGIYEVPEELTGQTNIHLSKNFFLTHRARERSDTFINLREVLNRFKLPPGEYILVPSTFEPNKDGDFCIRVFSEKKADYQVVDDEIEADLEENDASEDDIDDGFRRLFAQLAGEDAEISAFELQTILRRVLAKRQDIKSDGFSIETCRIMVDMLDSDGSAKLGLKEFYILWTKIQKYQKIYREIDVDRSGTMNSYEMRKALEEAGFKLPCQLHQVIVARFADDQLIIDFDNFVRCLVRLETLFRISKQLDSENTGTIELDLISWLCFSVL

[2] = cells; assay type: functional, cell-based
[3] = cells; assay type: functional, cell-based; remark: listed apart in the source
[4] = blockers of HIV-1 envelope-mediated cell-cell fusion – cherry-pick, dose response (AID 652057); assay type: functional, cell-based
[5] = viability loss in CEM21 cells – cell-based, CellTiter-Glo luminescence, cherry-picked, cytotoxicity control for viral fusion inhibitor project, dose response (AID 652042); assay type: functional;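 further: potency for signal decrease meaning cytotoxicity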
[6] = blockers of HIV-1 ZM109 envelope-driven cell-cell fusion – HeLa effector, CEM target cells, luciferase, cherry-pick, dose response (AID 652058); assay type: functional, cell-based;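 further: luciferase signal from HIV-1 Env mediated cell-cell fusion of effector and target cells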
[7] = off-target signal loss in HeLa-CEM21 co-culture – HeLa F-luc CTL cells, cherry-picked, counter-screen for HIV-1 Env fusion inhibitor project, dose response (AID 652040); assay type: functional, cell-based;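 further: potency for signal decrease marking cytotoxic or nonspecific inhibition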
[8] = HIV-1 AD8 envelope cell-cell fusion blockers – cherry-pick, dose response (AID 652062); assay type: functional, cell-based;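 further: luciferase signal from cell-cell fusion driven by HIV-1 clade B AD8 Env; potency is for inhibitors of fusion seen as a drop in luminescence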
[9] = activation of miR-122 Renilla sensor silencing – cell-based, Huh7 psiCHECK-miR122, Renilla luciferase, cherry-picked, dose response (AID 651956); assay type: functional;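 further: huh7 hepatoma cells stably carrying a psiCHECK-2 miR-122 sensor plasmid; renilla luciferase signal reporting endogenous miR-122 activity after 48 h compound exposure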
[10] = general mammalian cell viability loss – inhibitor set, cherry-pick, set 2, cytotoxicity control for miR-122 modulator project, dose response (AID 720697); assay type: functional, cell-based
[11] = biological target: T2, Heat shock factor protein 1 (Mus musculus, UniProt P38532); test: decrease of HSF1-responsive luciferase luminescence – cell-based, NIH3T3, dose retest, confirmation (AID 2382); assay type: functional;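 further: NIH3T3 fibroblasts with HSF1-driven luciferase reporter stressed by proteasome inhibitor MG132; luminescence from HSF1-driven luciferase expression after 8 hours of MG132 stress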
T2 sequence (P38532 whole entry): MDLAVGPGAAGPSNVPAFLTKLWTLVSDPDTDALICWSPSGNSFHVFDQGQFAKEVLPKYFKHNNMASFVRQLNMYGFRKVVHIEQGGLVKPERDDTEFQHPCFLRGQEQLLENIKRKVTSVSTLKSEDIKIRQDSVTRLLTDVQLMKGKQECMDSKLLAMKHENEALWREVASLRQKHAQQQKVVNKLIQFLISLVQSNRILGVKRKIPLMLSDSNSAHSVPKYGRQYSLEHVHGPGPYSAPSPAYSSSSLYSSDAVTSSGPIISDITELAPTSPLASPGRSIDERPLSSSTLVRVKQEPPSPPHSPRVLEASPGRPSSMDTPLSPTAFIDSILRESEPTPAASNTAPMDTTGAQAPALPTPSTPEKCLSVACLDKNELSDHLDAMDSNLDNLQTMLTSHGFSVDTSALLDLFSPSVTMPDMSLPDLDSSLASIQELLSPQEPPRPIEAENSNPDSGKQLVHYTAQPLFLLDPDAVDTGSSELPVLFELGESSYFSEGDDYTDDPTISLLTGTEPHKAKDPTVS

[12] = biological target: T3, Galanin receptor type 3 (Homo sapiens, UniProt O60755); test: Fluorescence-based cell-based primary high throughput dose response assay to identify antagonists of the Galanin Receptor 3 (GalR3).; assay type: functional
T3 sequence (O60755 whole entry): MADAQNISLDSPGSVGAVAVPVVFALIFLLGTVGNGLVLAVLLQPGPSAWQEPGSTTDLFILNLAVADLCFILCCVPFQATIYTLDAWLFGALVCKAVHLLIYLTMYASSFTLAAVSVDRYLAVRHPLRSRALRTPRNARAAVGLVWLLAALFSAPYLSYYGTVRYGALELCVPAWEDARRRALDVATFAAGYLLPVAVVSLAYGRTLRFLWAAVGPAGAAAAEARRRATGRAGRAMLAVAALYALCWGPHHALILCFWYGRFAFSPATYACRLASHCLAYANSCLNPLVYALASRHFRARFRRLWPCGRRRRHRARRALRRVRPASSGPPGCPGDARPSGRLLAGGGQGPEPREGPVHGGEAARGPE

[13] = cells; assay type: functional, cell-based; conditions: HEK-CNG
[14] = system: HeLa; test: viability loss in HeLa cells – cell-based, ATP luminescence, cherry-pick samples, cytotoxicity control, dose response (AID 687004); assay type: functional; conditions: Homo sapiens
[15] = biological target: T4, Aminopeptidase N (Plasmodium falciparum FcB1/Columbia, UniProt O96935); test: malaria alanyl aminopeptidase activity blockers – biochemical, fluorogenic H-Leu-NHMec substrate, 1536-well (AID 1445); set-up: species or system Plasmodium falciparum 3D7, 3D7
T4 sequence (O96935 whole entry): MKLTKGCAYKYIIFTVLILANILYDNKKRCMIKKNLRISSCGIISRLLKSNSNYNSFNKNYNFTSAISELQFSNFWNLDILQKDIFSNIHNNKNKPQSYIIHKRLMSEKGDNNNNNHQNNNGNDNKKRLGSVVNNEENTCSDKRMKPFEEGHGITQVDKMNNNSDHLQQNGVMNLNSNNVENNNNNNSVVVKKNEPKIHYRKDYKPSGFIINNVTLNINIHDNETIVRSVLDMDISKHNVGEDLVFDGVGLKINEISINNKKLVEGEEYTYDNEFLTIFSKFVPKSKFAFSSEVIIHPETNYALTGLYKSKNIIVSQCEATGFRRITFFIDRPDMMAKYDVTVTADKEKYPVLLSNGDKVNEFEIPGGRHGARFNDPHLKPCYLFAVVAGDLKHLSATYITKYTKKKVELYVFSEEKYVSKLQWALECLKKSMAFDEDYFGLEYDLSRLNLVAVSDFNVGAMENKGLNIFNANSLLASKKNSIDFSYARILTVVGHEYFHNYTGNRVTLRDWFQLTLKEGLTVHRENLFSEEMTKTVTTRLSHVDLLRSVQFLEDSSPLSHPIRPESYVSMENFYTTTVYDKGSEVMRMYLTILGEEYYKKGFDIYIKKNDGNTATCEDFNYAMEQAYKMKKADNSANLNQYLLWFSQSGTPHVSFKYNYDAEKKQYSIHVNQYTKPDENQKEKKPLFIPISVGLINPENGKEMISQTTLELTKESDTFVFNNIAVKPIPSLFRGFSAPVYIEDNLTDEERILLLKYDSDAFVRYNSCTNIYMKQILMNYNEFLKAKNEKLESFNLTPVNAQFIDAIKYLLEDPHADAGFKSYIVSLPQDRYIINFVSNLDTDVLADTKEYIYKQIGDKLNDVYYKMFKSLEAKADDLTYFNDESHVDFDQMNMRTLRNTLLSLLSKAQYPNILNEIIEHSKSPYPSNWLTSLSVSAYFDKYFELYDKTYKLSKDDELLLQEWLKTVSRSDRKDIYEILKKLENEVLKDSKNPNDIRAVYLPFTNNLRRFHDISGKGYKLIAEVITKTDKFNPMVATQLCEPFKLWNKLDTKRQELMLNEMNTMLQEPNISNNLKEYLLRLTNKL

[16] = Trypanosoma cruzi growth suppression in host cells – NIH3T3 host cells, beta-gal luminescence, confirmation (AID 2044); assay type: functional, cell-based;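 further: intracellular parasites grown in NIH/3T3 mouse fibroblasts as host cells; luminescent beta-galactosidase reporter signal from transgenic T. cruzi replicating inside host cells; inhibitors lower the luminescence signal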
[17] = NIH3T3 cell viability loss – ATP luminescence, mouse fibroblasts, counter-screen, dose response (AID 2010); assay type: functional, cell-based;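 further: cells exposed to compound for about 90 hours before reading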
[18] = biological target: SWI/SNF-related matrix-associated actin-dependent regulator of chromatin subfamily A member 2 (Homo sapiens, UniProt P51531); test: Luminescence-based cell-based high throughput dose response assay to identify activators of the function of SWI/SNF related, matrix associated, actin dependent regulator of chromatin, subfamily a, member 2 (SMARCA2, BRM).; assay type: functional
SWI/SNF-related matrix-associated actin-dependent regulator of chromatin subfamily A member 2, sequence (P51531 whole entry): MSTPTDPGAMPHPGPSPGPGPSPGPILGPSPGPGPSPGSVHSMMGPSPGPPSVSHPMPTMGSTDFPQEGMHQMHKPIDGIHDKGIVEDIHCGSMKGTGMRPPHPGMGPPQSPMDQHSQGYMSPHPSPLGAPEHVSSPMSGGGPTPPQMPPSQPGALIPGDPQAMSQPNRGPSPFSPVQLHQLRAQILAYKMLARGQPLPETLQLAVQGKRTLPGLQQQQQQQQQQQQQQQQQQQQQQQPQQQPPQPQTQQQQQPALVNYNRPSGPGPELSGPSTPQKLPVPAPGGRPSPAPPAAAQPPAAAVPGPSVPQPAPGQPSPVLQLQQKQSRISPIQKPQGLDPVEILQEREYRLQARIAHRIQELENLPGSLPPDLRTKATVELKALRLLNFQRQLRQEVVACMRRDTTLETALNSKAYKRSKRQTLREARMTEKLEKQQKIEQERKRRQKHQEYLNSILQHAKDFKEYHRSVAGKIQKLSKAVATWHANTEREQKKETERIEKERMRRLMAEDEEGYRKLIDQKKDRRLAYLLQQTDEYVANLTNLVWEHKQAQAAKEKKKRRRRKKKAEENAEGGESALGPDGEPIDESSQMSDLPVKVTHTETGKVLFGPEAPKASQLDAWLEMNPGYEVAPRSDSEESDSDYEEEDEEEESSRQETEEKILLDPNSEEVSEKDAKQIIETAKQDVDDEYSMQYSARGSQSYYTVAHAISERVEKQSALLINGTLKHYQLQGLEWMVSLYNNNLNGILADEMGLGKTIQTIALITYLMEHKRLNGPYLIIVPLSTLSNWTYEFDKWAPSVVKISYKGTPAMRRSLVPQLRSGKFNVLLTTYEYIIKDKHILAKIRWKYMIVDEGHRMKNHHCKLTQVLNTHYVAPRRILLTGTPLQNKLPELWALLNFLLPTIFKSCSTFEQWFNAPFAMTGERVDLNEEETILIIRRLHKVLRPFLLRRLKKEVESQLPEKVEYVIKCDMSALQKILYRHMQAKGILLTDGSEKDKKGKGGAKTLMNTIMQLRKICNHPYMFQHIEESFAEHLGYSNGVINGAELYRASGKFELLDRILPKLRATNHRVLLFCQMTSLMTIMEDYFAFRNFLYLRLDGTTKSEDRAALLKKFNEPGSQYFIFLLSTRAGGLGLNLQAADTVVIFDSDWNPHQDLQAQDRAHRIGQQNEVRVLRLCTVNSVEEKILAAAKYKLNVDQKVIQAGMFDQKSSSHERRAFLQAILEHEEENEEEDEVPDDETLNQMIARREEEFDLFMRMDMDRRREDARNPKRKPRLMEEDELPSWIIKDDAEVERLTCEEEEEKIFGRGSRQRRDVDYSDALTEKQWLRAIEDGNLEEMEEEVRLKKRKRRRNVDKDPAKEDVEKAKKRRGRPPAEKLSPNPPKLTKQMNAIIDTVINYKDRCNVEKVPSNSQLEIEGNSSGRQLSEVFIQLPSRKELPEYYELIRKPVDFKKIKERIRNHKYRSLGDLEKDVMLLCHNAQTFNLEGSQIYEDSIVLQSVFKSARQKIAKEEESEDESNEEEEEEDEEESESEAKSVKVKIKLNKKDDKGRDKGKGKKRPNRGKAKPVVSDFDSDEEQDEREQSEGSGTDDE

[19] = Counterscreen for activators of the function of SWI/SNF related, matrix associated, actin dependent regulator of chromatin, subfamily a, member 2 (SMARCA2, BRM): Luminescence-based cell-based high throughput dose response assay to identify non-selective compounds using the VP16 reporter assay.; assay type: functional
[20] = biological target: T5, DNA repair protein RAD52 homolog (Homo sapiens, UniProt P43351); assay type: functional, biochemical
T5 sequence (P43351 whole entry): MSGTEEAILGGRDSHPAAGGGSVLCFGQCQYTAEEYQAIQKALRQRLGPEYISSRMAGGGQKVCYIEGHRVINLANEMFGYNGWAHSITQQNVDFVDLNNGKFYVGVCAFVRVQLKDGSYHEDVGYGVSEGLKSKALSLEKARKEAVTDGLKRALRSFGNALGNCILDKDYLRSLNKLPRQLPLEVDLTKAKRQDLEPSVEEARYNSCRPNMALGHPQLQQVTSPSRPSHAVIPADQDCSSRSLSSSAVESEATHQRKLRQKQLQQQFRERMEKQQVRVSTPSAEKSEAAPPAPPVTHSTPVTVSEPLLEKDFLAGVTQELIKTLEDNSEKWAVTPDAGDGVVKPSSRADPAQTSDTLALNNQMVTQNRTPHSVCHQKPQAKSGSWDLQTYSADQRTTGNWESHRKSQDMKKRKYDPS

## O=C(NCCc1ccccc1)c1cnc2n(c1=O)CCS2
[1]
  IC50: 24.2 µM (not active)
[2]
  IC50: > 29.9 µM (inactive)
[3]
  EC50: > 29.9 µM (inactive)

## NC(c1csc(NC(=O)Nc2cccc(Cl)c2)n1)c1ccccc1Cl (stereo unspecified)
[4]
  AC50: 11.9 µM (active)
[5]
  AC50: 16.4 µM (active)
[6]
  AC50: 16.2 µM (active)
[7]
  AC50: 29.4 µM (active)
[8]
  AC50: 28.5 µM (active)

## C[C@@H]1CN([C@@H](C)CO)S(=O)(=O)c2ccc(-c3ccc(C(=O)N(C)C)cc3)cc2O[C@@H]1CN(C)C(=O)C1CCC1
[9]
  AC50: 13.8 µM (active)
[10]
  AC50: 0.516 µM (active)

## N#Cc1c(N)nc2c3c(sc(=N)c2c1N)NC(=O)CC3c1ccccc1 (stereo unspecified)
[11]
  EC50: > 195 µM (not active)
[12]
  IC50: > 29.9 µM (inactive)
[13]
  EC50: > 29.9 µM (inactive)

## COC(=O)C1=C(C)N(Cc2ccccc2)C(=S)N[C@H]1c1cccc(C(F)(F)F)c1
[14]
  AC50: > 52 µM (inactive)

## COc1ccc(Cn2nnnc2C(c2cc3cccc(C)c3nc2O)N2CCOCC2)cc1 (stereo unspecified)
[4]
  AC50: 6.52 µM (active)
[6]
  AC50: 5.44 µM (active)
[7]
  AC50: 7.1 µM (active)
[8]
  AC50: 6.17 µM (active)

## Cc1nc(NC(=N)N)nc2c(C)cccc12
[15]
  IC50: 47.6 µM (active)
[16]
  EC50: 0.371 µM (active)
[17]
  EC50: > 60 µM (not active)
[18]
  EC50: > 10.1 µM (inactive)
[19]
  EC50: > 91.1 µM (inactive)
[20]
  AC50: 1.4 µM (active)

## COc1cc(CCC(=O)OCC(=O)Nc2sccc2C(N)=O)cc(OC)c1OC
[12]
  IC50: 1.55 µM (active)
[13]
  EC50: > 29.9 µM (inactive)
